This is an account of results in a melting point compilation (Tetko et al.; mined from patent text by program, amines drawn as free bases though some values may be those of a salt).

Residues, ends and D or L forms follow the SMILES beside them. *: point of attachment. Cbz = O=C(OCc1ccccc1)*

What is called melting point is the temperature of the solid-liquid transition.

As to `CC(C)c1nc(-c2ccccc2)c(F)c(-c2ccc(F)cc2)c1CO`, the melting point was in the range of 164 to 165 °C.
For `COc1ccc(/C(C)=C/c2ccc(C(=O)O)cc2)cc1C1(C)CCCCC1`, the melting point was in the range of 175 to 176 °C.
`O=C(O)Cn1cc(Cc2nc3c(F)c(F)cc(F)c3s2)c2cccc(Cl)c21` had a melting point of 228 to 230 °C.
The value for `C=C1COc2c(N3CCN(C)CC3)c(F)cc3c(=O)c(C(=O)O)cn1c23` was 200 to 201 °C; that for `CCCS(=O)(=O)N1CCC(c2nc3cc(-c4ccc(C(N)=O)c(F)c4)ccc3o2)CC1` was 222 to 225 °C.
The value for `COc1ccccc1CC(C)NCC(O)c1cccc(Cl)c1` (configuration not stated) was 85 to 87 °C.
The value for `COc1cc(CN2CCN(c3cccc(C)c3Cl)CC2)cc(OC)c1OC` was 112 to 113 °C; that for `COc1cc(COc2nn(Cc3ccc(Oc4ccccc4)cc3)cc2C(N)=O)ccc1OCc1nc(-c2ccco2)oc1C` was 105 to 106 °C; that for `CCOC(=O)C1=Cc2cc(C)c(O)cc2OC1C(F)(F)F` (configuration not stated) was 151 to 153 °C.
With `CC[C@@H]1NC(=O)C[C@]1(C)O`, the melting point lay within 87 to 111 °C.
For the compound `CCOC(=O)C=Cc1ccc2c(c1)CC(CNS(=O)(=O)c1ccc(Cl)cc1)C2` (configuration not stated), the melting point is 113 to 115 °C.
The value for `CCCCC1C=C(n2c3ccccc3c3ccccc32)c2ccccc2N1C(=O)c1ccc(OC)c(OC)c1` (configuration not stated) was 174 to 175 °C; that for `O=C1c2ccc(S(=O)(=O)c3ccccc3)cc2C(=O)c2c1c(Oc1ccccc1)c1ccccc1c2Oc1ccccc1` was 260 to 270 °C; that for `c1coc(-c2nc(NCC3CC3)cc(-n3cccn3)n2)c1` was 101 to 102 °C.
The value for `Fc1ccc2sccc2c1` was 21 to 22 °C; that for `CCOCc1nc2c(N)nc3cc(-c4cccc(CO)c4)cnc3c2n1CC(C)(C)O` was 186 to 187 °C.
The value for `CN(Cc1ccccc1)c1nccc2ccccc12` was 53.5 to 54.5 °C; that for `COC(=O)N1Cc2c(O)noc2C(C)C1` (racemic) was 128 to 129 °C; that for `CN(C)C1(c2ccccc2)CCC(CNC(=O)CCCCCc2c[nH]c3ccc(F)cc23)CC1` (configuration not stated) was 52 to 54 °C.
Regarding `CC(=O)OCC1OC(n2c(Br)nc3cc(Cl)c(Cl)cc32)C(O)C1O` (configuration not stated), the melting point lay within 85 to 95 °C.
With `O=C(O)COc1cc2c(-c3ccc(Cl)cc3)csc2c(Cl)c1Cl`, the melting point was 206 to 208 °C.
The compound `CCCC1CCC(C2CCC(C3CCCC(=O)C3)CC2)CC1` (configuration not stated) yielded a melting point of 1.5 °C.
The value for `CCCCOc1cc(CCC(=O)O)n(Cc2ccc(Cl)cc2Cl)n1` was 123 to 124 °C; that for `CC(C)C(=O)OCCn1nc(-c2cc(C(C)(C)C)c(O)c(C(C)(C)C)c2)c2cccnc21` was 94 to 96 °C; that for `COC(=O)C1Sc2cc(OCc3ccccc3)ccc2OCC1=O` (configuration not stated) was 101 to 102 °C.
The value for `O=c1ccc(S(=O)(=O)c2cc3cc(Cl)cc(Cl)c3o2)n[nH]1` was 240 to 245 °C; that for `O=C(N[C@@H]1CC(=O)N(Cc2ccccc2)C1=O)OCc1ccccc1` was 143 to 144 °C.
The value for `COC(=O)c1cc2ccc(C(=O)NCCN3CCOCC3)cc2[nH]1` was 226 to 228 °C; that for `CCOC(=O)C1=C(C(=O)OCC)C(c2cccc3ccccc23)C(C(=O)OCC)=C(C)N1` (configuration not stated) was 112 °C; that for `CC(C(N)=S)C(O)(Cn1cncn1)c1ccc(F)cc1F` (configuration not stated) was 164 to 167 °C.
The compound `CC1(C)Cc2ccc(C#N)cc2N(C(=O)NCc2ccccc2)C1` showed a melting point of 162 to 163 °C.
Turning to `Cc1ccc(S(=O)(=O)c2c(N)c3nccn3c3nccnc23)cc1`, the melting point was 294 to 295 °C.
The value for `Cc1ccc(C2CCN(C(=O)Nc3ccc4nc(CN5CCCC5)ccc4c3)CC2)cc1` was 214 to 216 °C; that for `COC(=O)NN=Cc1ccc(Oc2ccc(F)cc2)cc1` was 109 to 111 °C; that for `CCCCN(C)Cc1c(-c2ccccc2)sc(N)c1C(=O)c1ccc(Cl)cc1` was 84 to 88 °C.
The value for `CN(CCN1CCOCC1)c1ccc(OCC(=O)N[C@@H](CC(N)=O)C(=O)N[C@@H](Cc2ccccc2)[C@H](O)C(=O)N2CCC[C@H]2C(=O)NC(C)(C)C)cc1` was 85 to 95 °C; that for `COc1ccc(-c2cc3cc(F)c(F)cc3[nH]2)cc1N` was 210 to 211 °C; that for `Cc1nn(C)c(C)c1C(=O)NC1CCCCC1` was 185 to 186 °C.
The value for `O=C(NOC1CCCCO1)c1cnc(N2CCC(NS(=O)(=O)c3ccc4ccccc4c3)CC2)nc1` (configuration not stated) was 226 °C; that for `CNC1CCN(c2cc3c(cc2F)c(=O)c(C(=O)O)c2n3C(C)S2)C1` (configuration not stated) was 213 to 216 °C; that for `CCOC(=O)C(C(=O)OCC)C(=O)C1CCC2C3CCC4CC(O)CCC4(C)C3C(=O)CC12C` (configuration not stated) was 116 to 117 °C.
Turning to `Fc1cccc(CC2(Cc3ccncc3)c3cccnc3-c3ncccc32)n1`, the melting point was 180 to 182 °C.
The compound `CC(C#N)CCC(=O)O` (configuration not stated) had a melting point of 31.9 to 32.6 °C.
In the case of `CNC(=O)ON=C1SC(C)C(=O)N1N(C)C` (configuration not stated), the melting point lay in the range of 110 to 113 °C.
`Cc1ccc(-c2ccc3c(c2)C=C(CNc2ccc(CN(C)C4CCOCC4)cc2)CCO3)cc1` returned a melting point of 158 to 160 °C.
`CC(=O)N[C@@H](C)COc1ccc2nc(-c3ccc(OCC4CC4)c(F)c3)oc2c1` returned a melting point of 174 °C.
The value for `CON=C1c2c(Cl)cc(Cl)c(-n3c(=O)cc(C(F)(F)F)n(C)c3=O)c2OC1(C)C` was 145 to 149 °C; that for `COC(=O)C(CO)NC(=O)C(Cc1c[nH]c2ccccc12)NC(=O)OCc1ccccc1` (stereo not drawn) (Cbz-Trp-Ser-OMe; configuration not given here) was 133 to 135 °C; that for `COc1ccc2c(c1)C(c1ccc(N)cc1)=NNC(=O)C2` was 167 to 170 °C.
The value for `CC(=O)N[C@H]1CC[C@H](CCC(=O)O)CC1` was 193 to 196 °C; that for `c1ccc(C(CC2=NCCN2)c2ccncc2)cc1` (configuration not stated) was 105 to 107 °C; that for `OC1(c2ccccc2)c2ccccc2C2=NC3CCCCC3N21` (configuration not stated) was 176 to 178 °C.
For `CCSC1(SCC)CCC2C3CCC4=CC(=O)C=CC4(C)C3C(O)CC21C` (configuration not stated), the melting point was in the range of 163 to 165 °C.
The value for `CCC(O)(C#CC(=O)c1ccc(SC)cc1)CC` was 49 to 50 °C; that for `CCCCOc1ccc(S(=O)(=O)C2(C(=O)NO)CCN(Cc3ccccn3)CC2)cc1` was 118 °C.
The value for `O=C1c2cc([N+](=O)[O-])ccc2OC12CC2` was 107 to 110 °C; that for `CC(c1oc2ccccc2c(=O)c1-c1cccc(F)c1)n1nc(C#CCO)c2c(N)ncnc21` (configuration not stated) was 171 to 173 °C.
`O=C1C(Cc2ccccc2)N(c2ccc(Oc3ccccc3)cc2)C(=S)N1c1ccccc1` (configuration not stated) returned a melting point of 130 °C.
Regarding `COc1cc(C)nc(NC(=O)NS(=O)(=O)c2ccccc2N)n1`, the melting point lay in the range of 210 to 215 °C.
Take `O=C(Nc1cccc(OC(F)(F)F)c1)Nc1ccccc1CCO`: the melting point is 160 to 161 °C.
With `CN(CCCNc1ncc(Cc2ccccc2Cl)c(=O)[nH]1)c1ccccn1`, the melting point is 47 to 49 °C.
The value for `O=C(NC1CCCC1)c1ccc(-c2ccc3c(c2)CCN(CCN2CCCC2)C3=O)cc1` was 258 to 260 °C.
